Calls of active or inactive are those of the source. The rule behind the calls is not given here. Positions of bridges follow the written chain, without caps; N, C: chain ends. Non-standard residues stand in square brackets, D forms with d. Residues, ends and D or L forms follow the SMILES beside them. Chains are numbered I, II in the order given. Orn = NCCC[C@H](N)C(=O)O
Columns and labels:
[1] = Binding affinity to 5'-GCGAGCACAGCTTTTTGCTGTGCTCGC-3' dsDNA (unknown origin) by tryptophan fluorescence spectroscopic analysis
[2] = Binding affinity to 5'-GCGAGTAGAGCTTTTTGCTCTACTCGC-3' dsDNA (unknown origin) by ethidium bromide displacement assay
[3] = Binding affinity to 5'-GCGAGTAGAGCTTTTTGCTCTACTCGC-3' dsDNA (unknown origin) by tryptophan fluorescence spectroscopic analysis
[4] = Binding affinity to 5'-GCGAGCACAGCTTTTTGCTGTGCTCGC-3' dsDNA (unknown origin) by ethidium bromide displacement assay
[5] = Binding affinity to 5'-ATGACGTCAT-3' ATF/CREB dsDNA (unknown origin) by isothermal titration calorimetry
[6] = Binding affinity to 5'-ATGACTCAT-3' AP-1 dsDNA (unknown origin) by isothermal titration calorimetry

Row | Activity [1] | Kd [2] | Activity [3] | Activity [4] | Kd [5] | Kd [6] | SMILES
1 | Active | 2100 nM | Active | Active | – | – | CC(C)C[C@@H]1NC(=O)[C@H](CC(N)=O)NC(=O)[C@H](Cc2ccccc2)NC(=O)[C@H](CCC(N)=O)NC(=O)[C@H](CCCCN)NC(=O)[C@@H](N)CCCNC(=O)[C@H](Cc2c[nH]c3ccccc23)NC(=O)[C@H](CCCNC(=N)N)NC(=O)[C@H](CC(C)C)NC(=O)[C@H](CC(N)=O)NC(=O)[C@H](Cc2ccccc2)NC(=O)[C@H](CCC(N)=O)NC(=O)[C@H](CCCCN)NC(=O)[C@@H](N)CCCNC(=O)[C@H](Cc2c[nH]c3ccccc23)NC(=O)[C@H](CCCNC(=N)N)NC1=O (I: H-[Orn]KQFNLRW / II: H-[Orn]KQFNLRW; amide I:1-II:C, I:C-II:1)
2 | – | – | – | – | 20 µM | 20 µM | CC(=O)N[C@@H](CC(=O)O)C(=O)N1CCC[C@H]1C(=O)N[C@@H](C)C(=O)N[C@@H](C)C(=O)N[C@@H](CC(C)C)C(=O)N[C@@H](CCCCN)C(=O)N[C@@H](CCCNC(=N)N)C(=O)N[C@@H](C)C(=O)N[C@@H](CCCNC(=N)N)C(=O)N[C@@H](CC(N)=O)C(=O)N[C@H](C(=O)N[C@@H](CCC(=O)O)C(=O)N[C@@H](C)C(=O)N[C@@H](C)C(=O)N[C@@H](CCCNC(=N)N)C(=O)N[C@@H](CCCNC(=N)N)C(=O)N[C@@H](CO)C(=O)N[C@@H](CCCNC(=N)N)C(=O)N[C@@H](C)C(=O)N[C@@H](CCCNC(=N)N)C(=O)N[C@@H](CCCCN)C(=O)N[C@@H](CC(C)C)C(=O)N[C@@H](CCC(N)=O)C(=O)N[C@@H](CCCNC(=N)N)C(=O)N[C@@H](CC(C)C)C(=O)N[C@@H](CCCCN)C(=O)N[C@@H](CCC(N)=O)C(N)=O)[C@@H](C)O (Ac-DPAALKRARNTEAARRSRARKLQRLKQ-NH2)

Source: ChEMBL document CHEMBL3774307, “Synthesis, Characterization, and DNA Binding Profile of a Macrocyclic β-Sheet Analogue of ARC Protein” (ACS Med Chem Lett, 2015)
